How the values were obtained:
Format in all cases: in vivo, human
[1] = Ongoing tolebrutinib Phase 3 trials: hepatic safety; conditions: ongoing Phase 3 trials
Description: Thus, there is a need to mitigate the risk of hepatic injury and provide safe treatment for patients with MOGAD.

[2] = Phase 2b dose-finding trial (DRI15928): PK data and effect of fed status on tolebrutinib exposure; conditions: effect of fed status on exposure; Phase 2b trial in relapsing multiple sclerosis
Description: (§1) The choice of the dose of 60 mg of the BTK inhibitor taken with food is based on the results of a Phase 2b dose-finding trial for tolebrutinib in participants with relapsing multiple sclerosis (DRI15928). See for example, Reich, D. S., et al., Safety and efficacy of tolebrutinib, an oral brain-penetrant BTK inhibitor, in relapsing multiple sclerosis: a phase 2b, randomised, double-blind, placebo-controlled trial. Lancet Neurol, 2021. 20(9): p. 729-738.
(§2) The choice of the dose of 60 mg tolebrutinib taken with food is based on the results of the Phase 2b dose-finding trial for tolebrutinib in adult participants with relapsing multiple sclerosis (DRI15928).

[3] = tested on: participants with relapsing multiple sclerosis; assay: Phase 2b dose-finding trial (DRI15928): treatment response versus exposure, new gadolinium-enhancing T1-hyperintense lesions; conditions: after 12 weeks of treatment
Description: as §1, §2

[4] = tested on: participants with relapsing multiple sclerosis; assay: Phase 2b dose-finding trial (DRI15928): safety (TEAEs, AESIs, PCSAs); conditions: Phase 2b trial
Description: as §1
There were low numbers of AESIs and PCSAs observed.
as §2

With `C=CC(=O)N1CCC[C@@H](n2c(=O)n(-c3ccc(Oc4ccccc4)cc3)c3c(N)nccc32)C1` [tolebrutinib, (R)-1-(1-acryloylpiperidin-3-yl)-4-amino-3-(4-phenoxyphenyl)-1H-imidazo[4,5-c]pyridin-2(3H)-one] the drug-induced liver injury [1] was “Drug-induced liver injury has been identified”, the “time of occurrence of reported liver injury events after start of administration” value [1] was 2 to 3 months and the “course of liver enzyme elevation after discontinuation” value ([1]; after tolebrutinib discontinuation) was “appears reversible”. For the same molecule, the “increase in AUC0-24 (positive food effect)” value [2] was “approximately 2 fold”, the “correlation between treatment response and exposure (new gadolinium-enhancing T1-hyperintense lesions)” value [3] was “higher exposure was associated with low numbers of new gadolinium-enhancing T1-hyperintense lesions” and the “numbers of AESIs and PCSAs observed” value [4] was “low numbers”. The new risks identified ([4]; overall) was “no new risks were identified”, the “correlation between dose administered and number of TEAEs” value ([4]; tolebrutinib treatment arms) was “no correlation” and the “most common events (preferred terms)” value ([4]; tolebrutinib treatment arms) was “headache, upper respiratory tract infection, and nasopharyngitis”.

Source: patent US20260027100A1, “THERAPEUTIC TYROSINE KINASE INHIBITORS FOR MYELIN OLIGODENDROCYTE GLYCOPROTEIN ANTIBODY DISEASE (MOGAD)” (Principia Biopharma Inc., priority 2022, published 2026)
